# Reference: patent publication US20110152089A1, “HERBICIDAL COMPOSITIONS COMPRISING FLUFENACET” (Bayer CropScience AG, priority 2009, published 2011)
# Assays:
# LOLPE = test: PE application vs pre-sowing application, greenhouse (Table 3); assay type: in vivo, Lolium perenne; conditions: g of AS/ha: (A) 90, (B) 300, (C) 140, (A)+(B)+(C) 90 + 300 + 140
# Method: (§1) In the standard design of the test, seeds of various broad-leaved weed and weed grass biotypes (origins) were sown in a 8-13 cm diameter pot filled with natural soil of a standard field soil (loamy silt; non-sterile) and covered with a covering soil layer of about 1 cm. The pots were then cultivated in a greenhouse (12-16 h of light, temperature day 20-22° C., night 15-18° C.) until the time of application. The pots were treated on a laboratory track sprayer with spray liquors comprising the compositions according to the invention, mixtures of the prior art or components used individually. Application of the active compounds or active compound combinations formulated as WG, WP, EC or otherwise was carried out at the appropriate growth stages of the plants. The application rate for the spray application was 100-600 l of water/ha. After the treatment, the plants were returned to the greenhouses.
# (§2) About 3 weeks after the application, the soil action or/and foliar action was assessed visually according to a scale of 0-100% in comparison to an untreated comparative group: 0%=no noticeable effect compared to the untreated comparative group; 100%=full effect compared to the untreated comparative group.
# (§3) (notes: the term “seeds” also includes vegetative propagation forms such as, for example, rhizome pieces; abbreviations used: h light=hours of illumination, g of AS/ha=gram of active substance per hectare, l/ha=liter per hectare, S=sensitive, R=resistant) • 1. Pre-emergence action against weeds: seeds of various broad-leaved weed and weed grass biotypes (origins) were sown in a 8-13 cm diameter pot filled with natural soil of a standard field soil (loamy silt; non-sterile) and covered with a covering soil layer of about 1 cm. The pots were then cultivated in a greenhouse (12-16 h of light, temperature day 20-22° C., night 15-18° C.) until the time of application. The pots were treated at the BBCH stage 00-10 of the seeds/plants on a laboratory track sprayer with spray liquors comprising the compositions according to the invention, mixtures or components used individually, as WG, WP, EC or other formulations. The application rate for the spray application was 100-600 l of water/ha. After the treatment, the plants were returned to the greenhouses and, when required, treated with fertilizer and watered. • 2. Post-emergence action against weeds: seeds of various broad-leaved weed and weed grass biotypes (origins) were sown in a 8-13 cm diameter pot filled with natural soil of a standard field soil (loamy silt; non-sterile) and covered with a covering soil layer of about 1 cm. The pots were then cultivated in a greenhouse (12-16 h of light, temperature day 20-22° C., night 15-18° C.) until the time of application. […]
# AVEFA = test: as above; assay type: in vivo, Avena fatua; conditions: g of AS/ha: (A) 90, (B) 300, (C) 140, (A)+(B)+(C) 90 + 300 + 140
# Method: as §1, §2, §3
# HORVS = test: PE application vs pre-sowing application, crop selectivity, greenhouse (Table 3); assay type: in vivo, Hordeum vulgare, summer barley; conditions: g of AS/ha: (A) 90, (B) 300, (C) 140, (A)+(B)+(C) 90 + 300 + 140
# Method: as §1, §2
# (§4) (notes: the term “seeds” also includes vegetative propagation forms such as, for example, rhizome pieces; abbreviations used: h light=hours of illumination, g of AS/ha=gram of active substance per hectare, l/ha=liter per hectare, S=sensitive, R=resistant) • 1. Pre-emergence action against weeds: seeds of various broad-leaved weed and weed grass biotypes (origins) were sown in a 8-13 cm diameter pot filled with natural soil of a standard field soil (loamy silt; non-sterile) and covered with a covering soil layer of about 1 cm. The pots were then cultivated in a greenhouse (12-16 h of light, temperature day 20-22° C., night 15-18° C.) until the time of application. The pots were treated at the BBCH stage 00-10 of the seeds/plants on a laboratory track sprayer with spray liquors comprising the compositions according to the invention, mixtures or components used individually, as WG, WP, EC or other formulations. The application rate for the spray application was 100-600 l of water/ha. After the treatment, the plants were returned to the greenhouses and, when required, treated with fertilizer and watered. • 2. Post-emergence action against weeds: seeds of various broad-leaved weed and weed grass biotypes (origins) were sown in a 8-13 cm diameter pot filled with natural soil of a standard field soil (loamy silt; non-sterile) and covered with a covering soil layer of about 1 cm. The pots were then cultivated in a greenhouse (12-16 h of light, temperature day 20-22° C., night 15-18° C.) until the time of application. The pots were treated at various BBCH stages between 11-25 of the seeds/plants, i.e. generally between two to three weeks after the start of the cultivation, on a laboratory track sprayer with spray liquors comprising the compositions according to the invention, mixtures or components used individually, as WG, WP, EC or other formulations. The application rate for the spray application was 100-600 l of water/ha. After the treatment, the plants were returned to the greenhouses and, when required, treated with fertilizer and watered. • 3. Pre-emergence action against weeds with and without incorporation of active compound: seeds of various broad-leaved weed and weed grass biotypes (origins) were sown in a 8-13 cm diameter pot filled with natural soil of a standard field soil (loamy silt; non-sterile). […]
# VIOAR = test: Activity with different soil types, greenhouse (Table 5); assay type: in vivo, Viola arvensis; conditions: g of AS/ha: (A) 90, (B) 300, (C) 140, (A)+(B)+(C) 90 + 300 + 140; for activity VIOAR IU soil: IU soil (loamy silt standard field soil); for activity V18 VIOAR IU/EC73 soil: IU/EC73 soil (heavy soil, higher organic substance)
# Method: as §1, §2, §4
# LOLSS = test: Resistant biotypes, PE application, greenhouse (Table 6); assay type: in vivo, Lolium species; conditions: g of AS/ha: (A) 90, (B) 300, (C) 140, (A)+(B)+(C) 120 + 600 + 140, iodosulfuron 10; for activity LOLSS resistant: resistant (EMR) biotype; for activity LOLSS sensitive: sensitive biotype
# Method: as §1, §2, §3
# TRZAW = test: Different soil pH, PE application, crop selectivity, greenhouse (Table 8); assay type: in vivo, Triticum aestivum, winter wheat; conditions: for activity TRZAW pH 7.4 (crop plant): soil pH 7.4, g of AS/ha: (A) 90, (B) 300, (C) 140, (A)+(B)+(C) 90 + 300 + 140; for activity TRZAW pH 8.4 (crop plant): soil pH 8.4, g of AS/ha: (A) 90, (B) 300, (C) 140, (A)+(B)+(C) 90 + 300 + 140
# Method: as §1, §2, §4
# [1] = application 7 days prior to sowing
SMILES,activity LOLPE (LOLPE; PE application),activity LOLPE (LOLPE; [1]),activity AVEFA (AVEFA; PE application),activity AVEFA (AVEFA; [1]),activity HORVS (crop plant) (HORVS; PE application),activity HORVS (crop plant) (HORVS; [1]),activity VIOAR IU soil (VIOAR),activity V18 VIOAR IU/EC73 soil (VIOAR),activity LOLSS resistant (LOLSS),activity LOLSS sensitive (LOLSS),activity TRZAW pH 7.4 (crop plant) (TRZAW),activity TRZAW pH 8.4 (crop plant) (TRZAW)
"CCCN(CCC)c1c([N+](=O)[O-])cc(C(F)(F)F)cc1[N+](=O)[O-] [(B) trifluralin, 2,6-dinitro-N,N-dipropyl-4-(trifluoromethyl)benzenamine]",90%,0%,0%,60%,0%,20%,77%,0%,83%,98%,0%,0%
"CSc1nnc(C(C)(C)C)c(=O)n1N [(C) metribuzin, 4-amino-6-(1,1-dimethyl-ethyl)-3-(methylthio)-1,2,4-triazin-5-(4H)-one]",20%,80%,70%,0%,30%,20%,50%,0%,70%,70%,70%,80%
